According to patent US8129396B2, “2-[1H-benzimidazol-2(3H)-ylidene]-2-(pyrimidin-2-yl)acetamides and 2-[benzothiazol-2(3H)-ylidene]-2-(pyrimidin-2-yl)acetamides as kinase inhibitors” (Telik, Inc., priority 2008, dated 2012):

Tests used:
Aurora B kinase = target: T1, Aurora B kinase (Homo sapiens, UniProt Q96GD4); assay: Aurora B kinase assay (IMAP fluorescence polarization); assay type: biochemical; settings: 10 μM ATP; rounded to 1 significant figure; read-out: Aur-B IC50
T1 construct: purchased BPS Bioscience
Procedure, shortened: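 Reaction started with 100 nM fluorescein-labelled PKAtide and 10 μM ATP, run 45 min at room temperature, then stopped with IMAP binding reagent (1:400). After 30 min shaking at room temperature, fluorescence polarization read; run in duplicate with solvent control.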

VEGFR2 kinase = target: T2, VEGFR2 kinase (Homo sapiens, UniProt P35968); assay: VEGFR2 kinase assay; assay type: biochemical; settings: 6 μM ATP, 1 mM MnCl2; rounded to 1 significant figure
T2 construct: purchased Cell Signaling Technology
Procedure, shortened: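 VEGFR2 phosphorylates CSKtide with 6 μM ATP and 1 mM MnCl2 for 1 hr, otherwise following the Aurora A kinase protocol. Detection by IMAP fluorescence polarization, binding reagent diluted 1:1200 in 1:1 binding buffer A/B. Run in duplicate with solvent control.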

[1] = test system: HL60 (human promyelocytic leukemia) cells; assay: HL60 cytotoxicity assay (CellTiter-Glo); assay type: cell-based; settings: HL-60, 72 h, cytotoxicity, three days culture, read-out: HL60 IC50
[2] = test system: HL60 (human promyelocytic leukemia) xenograft; assay: HL60 xenograft assay, oral administration; assay type: in vivo, athymic nu/nu mice; settings: for inhibition of tumor growth compared to vehicle: 150 mg/Kg by gavage once/day on days 1-5 and 8-10, measured 1-2 days after last treatment
Protocol: Male athymic nu/nu mice, 6-8 weeks old (about 20 g), were implanted subcutaneously in the right fore flank with about 1×10^7 cells of the HL60 (human promyelocytic leukemia) line that had been grown in antibiotic-free medium for at least two passages. About 6 days after tumor implantation, when the tumor weight was about 50-250 mg, the mice were assigned to treatment groups. […] […] Tumor growth inhibition was measured 1-2 days after the last day of treatment.

[3] = test system: HCT116 (human colon carcinoma) xenograft; assay: HCT116 xenograft assay, oral administration; assay type: in vivo, athymic nu/nu mice; settings: for inhibition of tumor growth compared to vehicle: 150 mg/Kg by gavage once/day on days 1-5 and 8-12, measured 9 days after last treatment
Protocol: Male athymic nu/nu mice, 6-8 weeks old (about 20 g), were implanted subcutaneously in the right fore flank with about 1×10^7 cells of the HCT116 (human colon carcinoma) line that had been grown in antibiotic-free medium for at least two passages. About 14-21 days after tumor transplantation, when the tumor weight was about 50-250 mg, the mice were assigned to treatment groups. […] Groups of mice were treated with compounds 39A, 40A, 60A, 75A, 95A, and 117A at 150 mg/Kg by gavage once/day on days 1-5 and 8-12 from the start of treatment, with vehicle control. Tumor growth inhibition was measured 9 days after the last day of treatment.

[4] = test system: HCT116 (human colon carcinoma) cells; assay: HCT116 cytotoxicity assay (CellTiter-Glo); assay type: cell-based; settings: HCT-116, 72 h, cytotoxicity, three days culture, read-out: HCT116 IC50
p-H3 in HCT116 cells = assay: Histone phosphorylation (p-H3) assay; assay type: cell-based; settings: Homo sapiens, HCT-116; HCT116 cells, 4 hr incubation; read-out: p-H3 IC50
Procedure, shortened: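 HCT116 cells (2.5×10^4/well, attached overnight) treated 4 h with 8-point 3-fold compound dilutions at 0.5% DMSO. Lysates dot-blotted onto nitrocellulose and probed for p-H3 with β-actin on the same membrane, fluorescent secondary antibodies, Odyssey scan; duplicate wells.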

Aurora A kinase = target: T3, Aurora A kinase (Homo sapiens, UniProt O14965); assay: Aurora A kinase assay (IMAP fluorescence polarization); assay type: biochemical; settings: 10 μM ATP; rounded to 1 significant figure; read-out: Aur-A IC50
T3 construct: purchased Upstate Biotech
T3 sequence (O14965 1-403): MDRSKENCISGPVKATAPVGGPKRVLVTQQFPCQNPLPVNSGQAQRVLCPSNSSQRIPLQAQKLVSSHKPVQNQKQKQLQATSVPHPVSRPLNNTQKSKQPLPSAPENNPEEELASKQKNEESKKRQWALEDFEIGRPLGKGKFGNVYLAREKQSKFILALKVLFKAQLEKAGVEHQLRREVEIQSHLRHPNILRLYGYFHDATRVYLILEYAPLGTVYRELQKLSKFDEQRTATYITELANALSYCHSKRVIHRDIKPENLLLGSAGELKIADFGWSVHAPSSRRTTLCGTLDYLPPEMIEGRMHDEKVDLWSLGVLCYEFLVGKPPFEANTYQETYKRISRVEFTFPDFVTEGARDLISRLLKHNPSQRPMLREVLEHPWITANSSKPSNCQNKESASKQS
Procedure, shortened: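 Compounds (eight 3-fold dilutions, 2.5% DMSO final) were preincubated 5 min at room temperature with Aurora A kinase in buffer with 1 mM DTT. Reaction with 100 nM fluorescein-PKAtide and 10 μM ATP ran 45 min at room temperature, then was stopped with IMAP binding reagent; fluorescence polarization was read after 30 min.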

[5] = test system: HUVEC-2 (human umbilical vein endothelial cells); assay: HUVEC VEGF-dependent proliferation assay (BrdU); assay type: cell-based; settings: VEGF (25 ng/mL)-dependent proliferation, read-out: HUVEC IC50
Procedure, shortened: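 HUVEC-2 cells on gelatin got serially diluted compound (0.5% DMSO final), and VEGF (25 ng/mL) was added 2 hr later. BrdU (10 μM) went in after one day, with labelling for another day. VEGF-dependent proliferation was read by BrdU detection, in triplicate.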

Aurora kinase C = target: T4, Aurora kinase C (Homo sapiens, UniProt Q9UQB9); settings: reported; cited from earlier work
T4 sequence (Q9UQB9 1-309): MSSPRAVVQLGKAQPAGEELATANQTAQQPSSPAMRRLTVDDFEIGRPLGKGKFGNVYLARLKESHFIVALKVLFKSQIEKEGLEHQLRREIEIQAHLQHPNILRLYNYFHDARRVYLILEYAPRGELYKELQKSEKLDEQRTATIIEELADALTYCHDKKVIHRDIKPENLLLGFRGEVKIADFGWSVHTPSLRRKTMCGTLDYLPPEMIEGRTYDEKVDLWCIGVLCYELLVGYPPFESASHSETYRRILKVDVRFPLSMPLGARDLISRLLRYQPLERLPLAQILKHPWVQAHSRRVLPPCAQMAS

[6] = dissolved at 10 mg/mL in 0.1M sodium acetate pH5

T2 sequence (P35968 20-1356): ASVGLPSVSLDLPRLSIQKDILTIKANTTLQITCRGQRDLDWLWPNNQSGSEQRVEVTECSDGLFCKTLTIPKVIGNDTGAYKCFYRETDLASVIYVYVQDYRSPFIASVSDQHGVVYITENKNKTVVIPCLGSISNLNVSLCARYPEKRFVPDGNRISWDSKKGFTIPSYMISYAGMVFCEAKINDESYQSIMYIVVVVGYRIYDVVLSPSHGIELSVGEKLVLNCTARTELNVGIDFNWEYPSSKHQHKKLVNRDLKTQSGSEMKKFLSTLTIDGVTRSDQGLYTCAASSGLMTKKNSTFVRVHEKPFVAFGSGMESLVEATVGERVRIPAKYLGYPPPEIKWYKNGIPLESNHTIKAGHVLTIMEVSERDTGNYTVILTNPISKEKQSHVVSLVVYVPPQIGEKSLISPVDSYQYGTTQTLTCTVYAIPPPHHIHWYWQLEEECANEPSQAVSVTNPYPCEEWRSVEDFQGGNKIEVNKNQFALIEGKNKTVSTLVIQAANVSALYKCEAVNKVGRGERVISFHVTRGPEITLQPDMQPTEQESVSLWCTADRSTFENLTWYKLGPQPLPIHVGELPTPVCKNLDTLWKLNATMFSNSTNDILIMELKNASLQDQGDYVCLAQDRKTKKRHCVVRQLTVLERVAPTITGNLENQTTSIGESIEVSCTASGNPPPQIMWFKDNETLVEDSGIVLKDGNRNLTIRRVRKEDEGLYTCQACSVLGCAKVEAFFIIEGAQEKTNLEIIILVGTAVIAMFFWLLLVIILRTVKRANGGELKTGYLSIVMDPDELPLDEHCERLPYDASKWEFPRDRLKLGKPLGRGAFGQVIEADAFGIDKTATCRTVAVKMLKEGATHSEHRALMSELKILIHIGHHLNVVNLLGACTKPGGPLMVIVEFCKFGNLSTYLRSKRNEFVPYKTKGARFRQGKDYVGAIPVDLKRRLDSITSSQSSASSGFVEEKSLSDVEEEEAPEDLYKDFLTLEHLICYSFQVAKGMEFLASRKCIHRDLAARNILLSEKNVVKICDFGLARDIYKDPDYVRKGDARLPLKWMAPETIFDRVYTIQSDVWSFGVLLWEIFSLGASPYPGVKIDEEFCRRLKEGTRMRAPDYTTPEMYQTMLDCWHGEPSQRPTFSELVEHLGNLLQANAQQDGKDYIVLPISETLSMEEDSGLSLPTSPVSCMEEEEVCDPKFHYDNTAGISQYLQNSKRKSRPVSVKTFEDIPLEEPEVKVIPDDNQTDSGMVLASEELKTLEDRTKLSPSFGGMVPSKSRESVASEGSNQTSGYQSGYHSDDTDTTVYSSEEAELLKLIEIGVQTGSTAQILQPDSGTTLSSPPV
T1 sequence (Q96GD4 whole entry): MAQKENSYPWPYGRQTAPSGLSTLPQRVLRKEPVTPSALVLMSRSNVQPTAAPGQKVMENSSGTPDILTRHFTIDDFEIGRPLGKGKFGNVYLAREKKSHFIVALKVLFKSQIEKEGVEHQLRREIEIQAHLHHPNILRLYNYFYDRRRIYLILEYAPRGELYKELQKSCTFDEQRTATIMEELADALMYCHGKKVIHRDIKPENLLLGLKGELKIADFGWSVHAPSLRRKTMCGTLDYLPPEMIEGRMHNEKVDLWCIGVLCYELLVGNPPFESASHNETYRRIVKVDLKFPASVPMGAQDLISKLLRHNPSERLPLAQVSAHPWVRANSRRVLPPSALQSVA

## CCN(CC)CC(=O)N(CC)c1ccc2c(c1)N/C(=C(/C(N)=O)c1nccc(C(F)(F)F)n1)N2 [Compound 139A]
Aurora B kinase
  IC50: 2 nM
VEGFR2 kinase
  IC50: 30 nM
[1]
  IC50: 40 nM
[2]; dissolved at 4 mg/mL in 0.1M sodium acetate pH5, dosing at 40 mg/mL
  tumor inhibition relative to vehicle: 65%
[3]; dissolved at 4 mg/mL in 0.1M sodium acetate pH5
  tumor inhibition relative to vehicle: 46%
[4]
  IC50: 30 nM
p-H3 in HCT116 cells
  IC50: 90 nM
Aurora A kinase
  IC50: 20 nM

## NC(=O)C(=C1Nc2ccc(OCCn3ccnc3)cc2S1)c1nccc(C(F)(F)F)n1 (single isomer, unassigned) [Compound 117A, 2-{6-[2-(1H-imidazol-1-yl)ethoxy]benzothiazol-2(3H)-ylidene}-2-(4-trifluoromethylpyrimidin-2-yl)acetamide]
Aurora B kinase
  IC50: 8 nM
VEGFR2 kinase
  IC50: 20 nM
[5]
  IC50: 60 nM
[3]
  inhibition of tumor growth compared to vehicle: 42%
[4]
  IC50: 800 nM
p-H3 in HCT116 cells
  IC50: 300 nM
Aurora A kinase
  IC50: 10 nM

## NC(=O)/C(=C1\Nc2ccc(C(=O)N3CCNCC3)cc2N1)c1nccc(C(F)(F)F)n1 [Compound 60A]
Aurora B kinase
  IC50: 7 nM
VEGFR2 kinase
  IC50: 5 nM
[5]
  IC50: 80 nM
[3]
  inhibition of tumor growth compared to vehicle: 37%
[4]
  IC50: 200 nM
p-H3 in HCT116 cells
  IC50: 200 nM
Aurora A kinase
  IC50: 10 nM

## Cc1nc(N)sc1-c1ccnc(Nc2ccc(N3CCOCC3)cc2)n1 [CYC116]
Aurora kinase C
  IC50: < 100 nM

## CN1CCCC[C@@H]1C(=O)Nc1ccc2c(c1)N/C(=C(/C(N)=O)c1nccc(C(F)(F)F)n1)N2 [Compound 143A]
Aurora B kinase
  IC50: 6 nM
VEGFR2 kinase
  IC50: 30 nM
[1]
  IC50: 300 nM
[5]
  IC50: 80 nM
[2]; [6]
  tumor inhibition relative to vehicle: 65%
[4]
  IC50: 300 nM
p-H3 in HCT116 cells
  IC50: 200 nM
Aurora A kinase
  IC50: 4 nM

## NC(=O)/C(=C1\Nc2ccc(CCN3CCOCC3)cc2S1)c1nccc(C(F)(F)F)n1 [Compound 101A]
Aurora B kinase
  IC50: 9 nM
VEGFR2 kinase
  IC50: 20 nM
[1]
  IC50: 2000 nM
[5]
  IC50: 50 nM
[2]
  inhibition of tumor growth compared to vehicle: 38%
[4]
  IC50: 1000 nM
p-H3 in HCT116 cells
  IC50: 1000 nM
Aurora A kinase
  IC50: 7 nM

## NC(=O)/C(=C1\Nc2ccc(CCn3ccnc3)cc2S1)c1nccc(C(F)(F)F)n1 [Compound 95A]
Aurora B kinase
  IC50: 4 nM
VEGFR2 kinase
  IC50: 20 nM
[1]
  IC50: 2000 nM
[5]
  IC50: 50 nM
[2]
  inhibition of tumor growth compared to vehicle: 59%
[3]
  inhibition of tumor growth compared to vehicle: 61%
[4]
  IC50: 2000 nM
p-H3 in HCT116 cells
  IC50: 50 nM
Aurora A kinase
  IC50: 20 nM

## CCN(CCCN1CCOCC1)C(=O)c1ccc2c(c1)N/C(=C(/C(N)=O)c1nccc(C(F)(F)F)n1)N2 [Compound 41A]
Aurora B kinase
  IC50: 4 nM
VEGFR2 kinase
  IC50: 4 nM
[1]
  IC50: 100 nM
[5]
  IC50: 200 nM
[2]
  inhibition of tumor growth compared to vehicle: 81%
[4]
  IC50: 700 nM
p-H3 in HCT116 cells
  IC50: 100 nM
Aurora A kinase
  IC50: 6 nM

## CCN(C(=O)C1CCN(C)CC1)c1ccc2c(c1)N/C(=C(/C(N)=O)c1nccc(C(F)(F)F)n1)N2 [Compound 141A]
Aurora B kinase
  IC50: 6 nM
VEGFR2 kinase
  IC50: 40 nM
[1]
  IC50: 1000 nM
[5]
  IC50: 20 nM
[2]; [6]
  tumor inhibition relative to vehicle: 49%
[4]
  IC50: 900 nM
p-H3 in HCT116 cells
  IC50: 300 nM
Aurora A kinase
  IC50: 4 nM

## CCN(CC)CC(=O)Nc1ccc2c(c1)N/C(=C(/C(N)=O)c1nccc(C(F)(F)F)n1)N2 [Compound 75A]
Aurora B kinase
  IC50: 10 nM
VEGFR2 kinase
  IC50: 50 nM
[5]
  IC50: 200 nM
[2]
  inhibition of tumor growth compared to vehicle: 72%
[3]
  inhibition of tumor growth compared to vehicle: 60%
[4]
  IC50: 1000 nM
p-H3 in HCT116 cells
  IC50: 400 nM
Aurora A kinase
  IC50: 60 nM

## NC(=O)C(=C1Nc2ccc(C(=O)NCCCN3CCOCC3)cc2S1)c1nccc(C(F)(F)F)n1 (single isomer, unassigned) [Compound 40A, 2-(6-{[3-(4-morpholinyl)propyl]aminocarbonyl}-benzothiazol-2(3H)-ylidene)-2-(4-trifluoromethylpyrimidin-2-yl)acetamide]
Aurora B kinase
  IC50: 7 nM
VEGFR2 kinase
  IC50: 3 nM
[1]
  IC50: 7000 nM
[5]
  IC50: 30 nM
[3]
  inhibition of tumor growth compared to vehicle: 18%
[4]
  IC50: 200 nM
p-H3 in HCT116 cells
  IC50: 500 nM
Aurora A kinase
  IC50: 3 nM

## NC(=O)C(=C1Nc2ccc(C(=O)NCCCN3CCOCC3)cc2N1)c1nccc(C(F)(F)F)n1 (single isomer, unassigned) [Compound 39A, 2-(5-{[3-(4-morpholinyl)propyl]aminocarbonyl}-1H-benzimidazol-2(3H)-ylidene)-2-(4-trifluoromethylpyrimidin-2-yl)acetamide]
Aurora B kinase
  IC50: 5 nM
VEGFR2 kinase
  IC50: 7 nM
[1]
  IC50: 500 nM
[5]
  IC50: 60 nM
[2]
  inhibition of tumor growth compared to vehicle: 47%
[3]
  inhibition of tumor growth compared to vehicle: 56%
[4]
  IC50: 300 nM
p-H3 in HCT116 cells
  IC50: 900 nM
Aurora A kinase
  IC50: 10 nM
